The values below come from patent publication EP1586565A1, “Substituted polycyclic aryl and heteroaryl pyrazinones useful for selective inhibition of the coagulation cascade” (Pharmacia Corporation, priority 1999, dated 2000).

Assay [1] deals with Trypsin (Sus scrofa, UniProt P00761). The assay is described as follows: Trypsin Assay. To be noted: for IC50: read-out: IC50 or % Inhibition Trpysin II (30 uM), cells printed as bare numbers (IC50); for IC50 or % Inhibition Trpysin II (30 uM): % inhibition at 30 uM (cells with % or %@30, bare 0).
Assay [2] has as its target T1, TF-VIIa (Homo sapiens, UniProt P08709).
T1 construct: An extrinsic pathway is initiated by the conversion of coagulation factor VII to VIIa by Xa; purchased American Diagnostica, Greenwich CT; Soluble TF was made in house in E. coli
The assay is described as follows: TF-VIIa Assay. It counts as biochemical. To be noted: for IC50: cells printed as bare numbers (IC50), read-out: IC50 or % Inhibition TF-VIIa (30 µM); for IC50 or % Inhibition TF-VIIa (30 µM): % inhibition at 30 µM (cells with % or %@30, bare 0).

Assay [3] addresses T2, Human factor Xa (Homo sapiens, UniProt P00742).
T2 construct: leads from XII to XIIa to XIa to IXa and to the conversion of X to Xa; purchased Enzyme Research Laboratories, South Bend IN
The assay is described as follows: Xa Assay. Format: biochemical. To be noted: % inhibition at 30 µM (cells with % or %@30, bare 0).

SMILES strings stand for the structures. Some results are limits rather than exact numbers.

Sequence of Trypsin (P00761 9-231): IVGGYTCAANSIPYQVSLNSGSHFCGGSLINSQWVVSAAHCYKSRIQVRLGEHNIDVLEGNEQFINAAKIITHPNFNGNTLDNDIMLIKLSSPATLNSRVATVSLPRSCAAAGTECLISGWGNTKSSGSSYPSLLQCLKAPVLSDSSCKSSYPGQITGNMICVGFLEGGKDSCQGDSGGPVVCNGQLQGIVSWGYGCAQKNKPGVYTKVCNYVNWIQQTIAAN
T2 sequence (P00742 235-488 limits assumed): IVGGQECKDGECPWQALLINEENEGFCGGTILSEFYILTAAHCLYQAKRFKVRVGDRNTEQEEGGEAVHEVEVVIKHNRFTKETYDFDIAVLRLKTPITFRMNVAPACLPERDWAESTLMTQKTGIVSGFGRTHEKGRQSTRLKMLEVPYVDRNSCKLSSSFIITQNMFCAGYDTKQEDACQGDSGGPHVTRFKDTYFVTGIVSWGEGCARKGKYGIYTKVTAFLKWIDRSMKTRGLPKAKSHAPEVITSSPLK
T2 sequence (P00742 41-179 limits assumed): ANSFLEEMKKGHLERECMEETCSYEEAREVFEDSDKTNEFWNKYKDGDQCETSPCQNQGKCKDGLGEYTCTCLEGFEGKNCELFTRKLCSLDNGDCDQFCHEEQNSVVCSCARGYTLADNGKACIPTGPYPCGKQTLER
T1 sequence (P08709 213-466 limits assumed): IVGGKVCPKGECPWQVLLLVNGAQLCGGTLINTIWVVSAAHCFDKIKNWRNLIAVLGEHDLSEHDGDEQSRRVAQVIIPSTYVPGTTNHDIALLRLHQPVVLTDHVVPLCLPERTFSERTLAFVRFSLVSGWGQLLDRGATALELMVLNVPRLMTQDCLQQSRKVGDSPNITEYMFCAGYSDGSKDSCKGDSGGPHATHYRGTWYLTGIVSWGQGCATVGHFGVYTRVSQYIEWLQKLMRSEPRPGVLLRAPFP
T1 sequence (P08709 61-212 limits assumed): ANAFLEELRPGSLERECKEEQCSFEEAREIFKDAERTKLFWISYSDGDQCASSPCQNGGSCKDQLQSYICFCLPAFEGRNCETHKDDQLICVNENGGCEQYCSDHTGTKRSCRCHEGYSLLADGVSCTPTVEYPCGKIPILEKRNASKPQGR
T1 sequence (P13726 33-251 partner limits assumed): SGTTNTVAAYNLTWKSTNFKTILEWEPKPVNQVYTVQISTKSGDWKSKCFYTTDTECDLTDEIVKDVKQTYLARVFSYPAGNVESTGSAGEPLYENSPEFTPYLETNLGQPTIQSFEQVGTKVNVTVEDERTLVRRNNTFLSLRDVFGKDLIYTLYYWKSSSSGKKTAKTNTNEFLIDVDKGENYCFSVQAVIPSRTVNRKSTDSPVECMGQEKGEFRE

For `Nc1ccc(CNC(=O)Cn2c(Cc3ccccc3)c(Cl)nc(NCCc3ccccc3)c2=O)cn1` [Example 9], the half-inhibitory concentration (IC50) in assay [1] and in assay [2] was > 30 µM in each case.

`Nc1cccc(-c2c(Cl)nc(NC3CCC3)c(=O)n2CC(=O)NCCc2ccccc2)c1` [compound 89]: the “IC50 or % Inhibition Factor Xa (30 µM)” value in assay [3] was 5%@30. In assay [1], the “IC50 or % Inhibition Trpysin II (30 uM)” value was found to be 9%@30. The “IC50 or % Inhibition TF-VIIa (30 µM)” value in assay [2] worked out at 5%@30.

As for `CC(=O)Nc1cccc(-c2c(Cl)nc(NC(C)C)c(=O)n2CC(=O)NCCc2ccc(C(=N)N)cc2)c1` [Example 68], in assay [3], the “IC50 or % Inhibition Factor Xa (30 µM)” value stood at 6%. The “IC50 or % Inhibition TF-VIIa (30 µM)” value in assay [2] worked out at 32%.

On to `Nc1cccc(-c2c(Cl)nc(NC3CCC3)c(=O)n2CC(=O)NCc2ccccc2)c1` [compound 99], for which the “IC50 or % Inhibition Factor Xa (30 µM)” value in assay [3] turned out to be 8%@30. Moreover, in assay [1], the “IC50 or % Inhibition Trpysin II (30 uM)” value was 7%@30. The “IC50 or % Inhibition TF-VIIa (30 µM)” value in assay [2] came to 6%@30.

With `N=C(N)c1ccc(CNC(=O)Cn2c(-c3ccccc3)c(Cl)nc(NC3Cc4ccccc4C3)c2=O)cc1` [1507-08], the “IC50 or % Inhibition Factor Xa (30 µM)” value in assay [3] is reported as 1%. In addition, the “IC50 or % Inhibition TF-VIIa (30 µM)” value in assay [2] is reported as 7%.

`N=C(N)c1ccc(CNC(=O)C(Cc2ccccc2)n2c(-c3ccccc3)c(Cl)nc(NCCc3cccc(Cl)c3)c2=O)cc1` (stereo not drawn) [1517-20]: the “IC50 or % Inhibition Factor Xa (30 µM)” value in assay [3] is given as 0%. Also, the “IC50 or % Inhibition TF-VIIa (30 µM)” value in assay [2] is reported as 22%.

In the case of `N=C(N)c1ccc(CNC(=O)C(Cc2ccccc2)n2c(-c3ccccc3)c(Cl)nc(NC3CCC3)c2=O)cc1` (stereo not drawn) [1517-08], the “IC50 or % Inhibition Factor Xa (30 µM)” value in assay [3] is listed as 0%. Also, in assay [2], the “IC50 or % Inhibition TF-VIIa (30 µM)” value stood at 43%.

For the compound `Cc1cc(Cl)cc(Cl)c1CNc1nc(Cl)c(-c2ccccc2)n(CC(=O)NCc2ccc(C(=N)N)cc2)c1=O` [1512-45], the “IC50 or % Inhibition Factor Xa (30 µM)” value in assay [3] came to 11%. Also, the “IC50 or % Inhibition TF-VIIa (30 µM)” value in assay [2] turned out to be 27%.

For the compound `COc1ccc(-c2c(Cl)nc(NCc3ccncc3)c(=O)n2CC(=O)NCc2ccc(C(=N)N)cc2)cc1` [1471-35], in assay [3], the “IC50 or % Inhibition Factor Xa (30 µM)” value came out at 22%. Moreover, the “IC50 or % Inhibition TF-VIIa (30 µM)” value in assay [2] stood at 37%.

As for `N=C(N)c1ccc(CNC(=O)C(Cc2ccccc2)n2c(-c3ccccc3)c(Cl)nc(NCCc3ccccc3)c2=O)cc1` (stereo not drawn) [1517-14], the “IC50 or % Inhibition Factor Xa (30 µM)” value in assay [3] came out at 0%. For the same compound, the “IC50 or % Inhibition TF-VIIa (30 µM)” value in assay [2] stood at 30%.

`N=C(N)NCC#CCNC(=O)Cn1c(-c2ccccc2)cnc(NCCc2ccccc2)c1=O` [Example 36]: in assay [3], the “IC50 or % Inhibition Factor Xa (30 µM)” value was found to be 0%. Besides, in assay [1], the “IC50 or % Inhibition Trpysin II (30 uM)” value is listed as 30%. The “IC50 or % Inhibition TF-VIIa (30 µM)” value in assay [2] came out at 5%.

With `N=C(N)c1ccc(CNC(=O)Cn2c(-c3ccccc3)c(Cl)nc(NCc3c(F)cccc3C(F)(F)F)c2=O)cc1` [1512-44], the “IC50 or % Inhibition Factor Xa (30 µM)” value in assay [3] turned out to be 6%. Besides, the “IC50 or % Inhibition TF-VIIa (30 µM)” value in assay [2] was found to be 43%.

For the compound `N=C(N)c1ccc(CNC(=O)Cn2c(-c3ccccc3)c(Cl)nc(NCc3ccccn3)c2=O)cc1` [1507-24], the “IC50 or % Inhibition Factor Xa (30 µM)” value in assay [3] worked out at 15%. Also, the “IC50 or % Inhibition Trpysin II (30 uM)” value in assay [1] worked out at 25%@30. The “IC50 or % Inhibition TF-VIIa (30 µM)” value in assay [2] is given as 0%.

Take `CCCCNc1nc(Cl)c(-c2ccccc2)n(CC(=O)NCc2ccc(C(=N)N)cc2)c1=O` [1517-35]: in assay [3], the “IC50 or % Inhibition Factor Xa (30 µM)” value came to 0%. Further, the “IC50 or % Inhibition TF-VIIa (30 µM)” value in assay [2] stood at 33%.

Turning to `CC(C)Nc1nc(Cl)c(-c2cccc([N+](=O)[O-])c2)n(CC(=O)NCc2ccc(C(N)=NO)cc2)c1=O` [Example 61], the “IC50 or % Inhibition Factor Xa (30 µM)” value in assay [3] turned out to be 0%. Also, the “IC50 or % Inhibition Trpysin II (30 uM)” value in assay [1] came to 10%. The “IC50 or % Inhibition TF-VIIa (30 µM)” value in assay [2] is given as 1%.

`N=C(N)c1ccc(CNC(=O)Cn2c(-c3ccc4c(c3)OCO4)c(Cl)nc(NCCN3CCOCC3)c2=O)cc1` [1471-44]: the “IC50 or % Inhibition Factor Xa (30 µM)” value in assay [3] stood at 13%. Moreover, in assay [2], the “IC50 or % Inhibition TF-VIIa (30 µM)” value turned out to be 34%.

As to `COc1ccc(-c2c(Cl)nc(NCCN3CCOCC3)c(=O)n2CC(=O)NCc2ccc(C(=N)N)cc2)cc1` [1471-36], the “IC50 or % Inhibition Factor Xa (30 µM)” value in assay [3] was 6%. In addition, the “IC50 or % Inhibition TF-VIIa (30 µM)” value in assay [2] worked out at 11%.

Regarding `COc1ccc(-c2c(Cl)nc(NCc3ccccc3)c(=O)n2CC(=O)NCc2ccc(C(=N)N)cc2)cc1` [1471-33], the “IC50 or % Inhibition Factor Xa (30 µM)” value in assay [3] was 22%. For the same compound, the “IC50 or % Inhibition TF-VIIa (30 µM)” value in assay [2] came to 31%.

On to `N=C(N)c1ccc(CNC(=O)Cn2c(-c3ccc(-c4ccccc4)cc3)c(Cl)nc(NCCc3cccc(Cl)c3)c2=O)cc1` [1471-70], for which the “IC50 or % Inhibition Factor Xa (30 µM)” value in assay [3] is recorded as 12%. The “IC50 or % Inhibition TF-VIIa (30 µM)” value in assay [2] amounted to 10%.

With `Cc1cccc(Cl)c1CNc1nc(Cl)c(-c2ccccc2)n(CC(=O)NCc2ccc(C(=N)N)cc2)c1=O` [1512-31], the “IC50 or % Inhibition Factor Xa (30 µM)” value in assay [3] was determined as 14%. Also, the “IC50 or % Inhibition TF-VIIa (30 µM)” value in assay [2] is on record as 43%.

For `N=C(N)c1ccc(CNC(=O)Cn2c(-c3ccc(-c4ccccc4)cc3)c(Cl)nc(NCc3ccncc3)c2=O)cc1` [1471-67], the “IC50 or % Inhibition Factor Xa (30 µM)” value in assay [3] is given as 16%. For the same compound, the “IC50 or % Inhibition TF-VIIa (30 µM)” value in assay [2] came out at 12%.

Turning to `N=C(N)c1ccc(CNC(=O)Cn2c(-c3ccccc3)c(Cl)nc(NCc3cccc(OC(F)(F)F)c3)c2=O)cc1` [1512-40], in assay [3], the “IC50 or % Inhibition Factor Xa (30 µM)” value turned out to be 3%. In assay [2], the “IC50 or % Inhibition TF-VIIa (30 µM)” value was 40%.

`N=C(N)c1ccc(CNC(=O)Cn2c(-c3ccccc3)c(Cl)nc(NCC(F)(F)F)c2=O)cc1` [1507-41]: the “IC50 or % Inhibition Factor Xa (30 µM)” value in assay [3] is reported as 17%. Further, the “IC50 or % Inhibition TF-VIIa (30 µM)” value in assay [2] was determined as 48%.

As for `N=C(N)c1ccc(CNC(=O)Cn2c(-c3ccccc3)c(Cl)nc(NCc3cc(F)cc(C(F)(F)F)c3)c2=O)cc1` [1512-29], in assay [3], the “IC50 or % Inhibition Factor Xa (30 µM)” value came to 4%. Besides, in assay [2], the “IC50 or % Inhibition TF-VIIa (30 µM)” value was 47%.

As for `Nc1ccc(CNC(=O)Cn2c(CCc3ccccc3)c(Cl)nc(NCCc3ccccc3)c2=O)cn1` [Example 10, 3-(2-Phenylethylamino)-5-chloro-6-phenethyl-1-(2-amino-5-methylcarboxamidomethylpyridinyl)pyrazinone], the 50% inhibitory concentration (IC50) in assay [1] and in assay [2] was > 30 µM each time.

For the compound `CCc1c(Cl)nc(NCCc2cccc(Cl)c2)c(=O)n1CC(=O)NCc1ccc(C(=N)N)cc1` [1471-62], in assay [3], the “IC50 or % Inhibition Factor Xa (30 µM)” value stood at 0%. Besides, the “IC50 or % Inhibition TF-VIIa (30 µM)” value in assay [2] was 4%.

Regarding `COc1ccc(-c2c(Cl)nc(NCCc3ccncc3)c(=O)n2CC(=O)NCc2ccc(C(=N)N)cc2)cc1` [1471-37], the “IC50 or % Inhibition Factor Xa (30 µM)” value in assay [3] is 7%. Further, in assay [2], the “IC50 or % Inhibition TF-VIIa (30 µM)” value amounted to 39%.

With `N=C(N)c1ccc(CNC(=O)Cn2c(-c3ccccc3)c(Cl)nc(NCC3CC3)c2=O)cc1` [1517-43], in assay [3], the “IC50 or % Inhibition Factor Xa (30 µM)” value worked out at 0%. In assay [1], the “IC50 or % Inhibition Trpysin II (30 uM)” value is recorded as 43%. Also, in assay [2], the “IC50 or % Inhibition TF-VIIa (30 µM)” value is recorded as 25%.

Take `N=C(N)c1ccc(CNC(=O)Cn2c(-c3ccc(Cl)cc3)c(Cl)nc(NCCN3CCOCC3)c2=O)cc1` [1471-20]: the “IC50 or % Inhibition Factor Xa (30 µM)” value in assay [3] is listed as 34%. The “IC50 or % Inhibition TF-VIIa (30 µM)” value in assay [2] stood at 42%.

For `N=C(N)c1ccc(CNC(=O)Cn2c(-c3ccc(-c4ccccc4)cc3)c(Cl)nc(NCCc3ccccc3)c2=O)cc1` [1471-71], in assay [3], the “IC50 or % Inhibition Factor Xa (30 µM)” value was found to be 0%. In addition, the “IC50 or % Inhibition TF-VIIa (30 µM)” value in assay [2] was 6%.
